The values below are quoted from earlier work in US9969773B2, “Polymers, pharmaceutical compositions and methods of synthesizing the same” (NEW YORK UNIVERSITY, priority 2014, dated 2018).

The structures appear in SMILES notation.

Turning to `CC[C@H](C)[C@H](NC(=O)[C@H](CCC(=O)O)NC(=O)[C@H](CO)NC(=O)[C@@H](NC(=O)[C@@H](N)CO)C(C)C)C(=O)N[C@@H](CCC(N)=O)C(=O)N[C@@H](CC(C)C)C(=O)N[C@@H](CCSC)C(=O)N[C@@H](Cc1cnc[nH]1)C(=O)N[C@@H](CC(N)=O)C(=O)N[C@@H](CC(C)C)C(=O)NCC(=O)N[C@@H](CCCCN)C(=O)N[C@@H](Cc1cnc[nH]1)C(=O)N[C@@H](CC(C)C)C(=O)N[C@@H](CC(N)=O)C(=O)N[C@@H](CO)C(=O)N[C@@H](CCSC)C(=O)N[C@@H](CCC(=O)O)C(=O)N[C@@H](CCCN=C(N)N)C(=O)N[C@H](C(=O)N[C@@H](CCC(=O)O)C(=O)N[C@@H](Cc1c[nH]c2ccccc12)C(=O)N[C@@H](CC(C)C)C(=O)N[C@@H](CCCN=C(N)N)C(=O)N[C@@H](CCCCN)C(=O)N[C@@H](CCCCN)C(=O)N[C@@H](CC(C)C)C(=O)N[C@@H](CCC(N)=O)C(=O)N[C@@H](CC(=O)O)C(=O)N[C@H](C(=O)N[C@@H](Cc1cnc[nH]1)C(=O)N[C@@H](CC(N)=O)C(=O)N[C@@H](Cc1ccccc1)C(=O)O)C(C)C)C(C)C` [PTH (1-34), parathyroid hormone (1-34)], the half-life in serum is around 5 min.
